In assay [1] the target is T1, NIH/3T3 cells overexpressing FGFR3 WT-TACC3 fusion protein (Homo sapiens, UniProt P22607).
T1 construct: NIH/3T3 FGFR3 WT-TACC3 CTG (IC50); other: 72-hr incubation, CellTiter Glo, starting with 10 μM; fused on or other part: Q9Y6A5 (Transforming acidic coiled-coil-containing protein 3)
In words: NIH/3T3 FGFR3 WT-TACC3 cell proliferation assay. The format is cell-based. Conditions: 72-hr incubation, CellTiter Glo, starting with 10 μM; read-out: NIH/3T3 FGFR3 WT-TACC3 CTG (IC50). The method in brief:
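Cells seeded overnight, then exposed 72 h at 37 °C to compound in 9-point 4-fold dilutions from 10 μM (0.1% DMSO final). Viability read by CellTiter-Glo luminescence, normalized to survival %; IC50, pIC50 and Hill slope from concentration-response fit.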

The subject of assay [2] is NIH/3T3 cells transfected with the same control vector. The assay is described as follows: NIH/3T3 mock cell proliferation assay (counter assay, general toxicity). In kind it is cell-based. Conditions: Mus musculus, NIH3T3, 72 h, 72-hr incubation, CellTiter Glo, starting with 30 μM; counter assay for general toxicity; read-out: NIH/3T3 MOCK CTG (IC50). The method in brief:
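Control-vector NIH/3T3 cells, 30,000/well in DMEM with 10% FBS, exposed 72 h at 37 °C to compound (9 points, 3-fold from 30 μM, 0.3% DMSO). CellTiter-Glo luminescence normalized to survival %; IC50, pIC50 and Hill slope from concentration-response fit.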

The target of assay [3] is T2, human FGFR3 V555M enzyme (cytoplasmic domain carrying V555M mutation) (Homo sapiens, UniProt P22607, V555M).
T2 construct: human FGFR3 V555M enzyme (cytoplasmic domain carrying V555M mutation, from Carna Biosciences); purchased Carna Biosciences
In words: FGFR3 V555M mobility shift assay (enzymatic assay). As to conditions: 30 μM ATP, 45 minutes at 30° C., Caliper EZ reader II. In kind it is biochemical. A digest of the protocol:
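Cytoplasmic-domain FGFR3 V555M (0.04 ng/μL) with 30 μM ATP and 1 μM FL-peptide 30 in HEPES pH 7.4/MgCl2/Brij35/DTT, 1% DMSO, 45 min at 30 °C, EDTA-stopped. Mobility-shift read of substrate-product conversion; 10-point 4× dilution from 10 μM fitted for IC50/pIC50.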

The target in assay [4] is T3, NIH/3T3 cells overexpressing FGFR3 V555M-TACC3 fusion protein (Homo sapiens, UniProt P22607, V555M, cells depend on it).
T3 construct: NIH/3T3 FGFR3 V555M-TACC3 CTG (IC50); other: 72-hr incubation, CellTiter Glo, starting with 10 μM; fused on or other part: Q9Y6A5 (Transforming acidic coiled-coil-containing protein 3)
In words: NIH/3T3 FGFR3 V555M-TACC3 cell proliferation assay. In kind it is cell-based. As to conditions: 72-hr incubation, CellTiter Glo, starting with 10 μM; read-out: NIH/3T3 FGFR3 V555M-TACC3 CTG (IC50). A digest of the protocol: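 NIH/3T3 cells overexpressing FGFR3 V555M-TACC3 fusion, 30,000/well in DMEM/10% FBS, treated for 72 h at 37 °C with 9 doses (4× dilutions from 10 μM top, 0.1% DMSO). CellTiter-Glo luminescence normalised to % survival; IC50, pIC50 and Hill slope from concentration-response fits.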

Data on four compounds can be found in patent US11384075B2, “Quinolinone compounds” (Janssen Pharmaceutica NV, priority 2017, dated 2022).

T1 sequence (P22607 whole entry, change not shown, the tested form may be a part): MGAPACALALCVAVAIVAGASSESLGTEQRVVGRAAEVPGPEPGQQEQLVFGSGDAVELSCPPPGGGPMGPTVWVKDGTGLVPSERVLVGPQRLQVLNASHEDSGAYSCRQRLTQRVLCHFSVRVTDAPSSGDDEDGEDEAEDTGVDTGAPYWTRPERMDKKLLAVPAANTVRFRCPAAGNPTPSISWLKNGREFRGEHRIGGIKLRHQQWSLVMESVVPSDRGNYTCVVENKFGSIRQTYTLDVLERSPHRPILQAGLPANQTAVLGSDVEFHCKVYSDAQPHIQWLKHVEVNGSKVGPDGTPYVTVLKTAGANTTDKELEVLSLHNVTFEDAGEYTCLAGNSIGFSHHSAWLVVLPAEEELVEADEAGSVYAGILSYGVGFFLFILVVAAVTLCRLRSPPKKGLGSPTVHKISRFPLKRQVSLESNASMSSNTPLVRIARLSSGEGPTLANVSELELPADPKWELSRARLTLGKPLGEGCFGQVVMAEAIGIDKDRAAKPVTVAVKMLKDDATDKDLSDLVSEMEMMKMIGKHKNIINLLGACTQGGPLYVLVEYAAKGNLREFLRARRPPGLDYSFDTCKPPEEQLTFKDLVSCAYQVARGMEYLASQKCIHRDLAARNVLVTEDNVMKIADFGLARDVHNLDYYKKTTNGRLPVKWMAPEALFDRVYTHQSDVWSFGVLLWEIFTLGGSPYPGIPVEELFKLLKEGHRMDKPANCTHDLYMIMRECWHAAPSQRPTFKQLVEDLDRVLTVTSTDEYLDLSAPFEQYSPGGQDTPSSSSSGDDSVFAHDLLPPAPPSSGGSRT
T3 sequence (P22607 whole entry V555M, the tested form may be a part): as the sequence (P22607 whole entry, change not shown, the tested form may be a part) above, with V555M counted along it
T2 sequence (P22607 397-806 V555M limits assumed): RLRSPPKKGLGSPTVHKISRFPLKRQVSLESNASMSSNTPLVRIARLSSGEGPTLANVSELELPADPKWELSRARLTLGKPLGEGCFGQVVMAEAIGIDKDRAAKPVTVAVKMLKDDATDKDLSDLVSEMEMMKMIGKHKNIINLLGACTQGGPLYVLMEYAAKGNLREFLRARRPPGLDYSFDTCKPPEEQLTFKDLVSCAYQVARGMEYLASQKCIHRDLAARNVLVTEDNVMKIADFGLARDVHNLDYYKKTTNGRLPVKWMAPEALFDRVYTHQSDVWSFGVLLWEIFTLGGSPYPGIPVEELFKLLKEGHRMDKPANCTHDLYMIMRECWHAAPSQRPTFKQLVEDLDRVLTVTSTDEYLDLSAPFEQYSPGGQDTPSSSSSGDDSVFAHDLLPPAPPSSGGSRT

Consider `C[C@H](Nc1c(-c2nc3ccc(N4CCOCC4)cc3[nH]2)c(=O)[nH]c2ccccc12)c1ncccn1` [Compound 2, (S)-3-(6-morpholino-1H-benzo[d]imidazol-2-yl)-4-((1-(pyrimidin-2-yl)ethyl)amino)-quinolin-2(1H)-one], for which the figures for the GI50 in assay [1] and in assay [4] were 3.61 nM and 4.89 nM, respectively. Besides, the IC50 in assay [2] was determined as 15300 nM; in assay [3] it was 0.213 nM.
In the same order, the values of `C[C@@H]1CN(c2ccc3nc(-c4c(N[C@@H](C)c5ccccn5)c5ccccc5[nH]c4=O)[nH]c3c2)C[C@H](C)O1` [Compound 4, 3-(6-((2S,6R)-2,6-dimethylmorpholino)-1H-benzo[d]imidazol-2-yl)-4-(((S)-1-(pyridin-2-yl)ethyl)amino)quinolin-2(1H)-one] are 24.8 nM, 42.7 nM, 7690 nM and 1.34 nM.
On the same counts, the results for `C[C@@H]1CN(c2ccc3nc(-c4c(N[C@@H](C)c5ccccn5)c5ccccc5[nH]c4=O)[nH]c3c2)C[C@@H](C)O1` [Compound 21, 3-(6-((2R,6R)-2,6-dimethylmorpholino)-1H-benzo[d]imidazol-2-yl)-4-(((S)-1-(pyridin-2-yl)ethyl)amino)quinolin-2(1H)-one] are 25 nM, 48.8 nM, 13600 nM and 2.75 nM.
In the same order, the values of `C[C@H](Nc1c(-c2nc3ccc(N4CCOCC4)c(F)c3[nH]2)c(=O)[nH]c2ccccc12)c1ccccn1` [Compound 24, (S)-3-(7-fluoro-6-morpholino-1H-benzo[d]imidazol-2-yl)-4-((1-(pyridin-2-yl)ethyl)-amino)quinolin-2(1H)-one] are 20.2 nM, 39.4 nM, 13100 nM and 0.929 nM.
